Experimental data: ChEMBL document CHEMBL4190183 (Medchemcomm, 2016)
Activity calls are given as the source filed them. No cut-off for these calls is given here.

How the values were obtained:
DNA ligase 1 [1] = molecular target: T1, DNA ligase 1 (Homo sapiens, UniProt P18858); test: Inhibition of human DNA ligase 1 expressed in Escherichia coli BL21(DE3)RP cells assessed as reduction in fluorescently labelled ds nicked DNA substrate ligation at 100 uM after 30 mins by urea gel based imaging method relative to control
T1 sequence (P18858 whole entry): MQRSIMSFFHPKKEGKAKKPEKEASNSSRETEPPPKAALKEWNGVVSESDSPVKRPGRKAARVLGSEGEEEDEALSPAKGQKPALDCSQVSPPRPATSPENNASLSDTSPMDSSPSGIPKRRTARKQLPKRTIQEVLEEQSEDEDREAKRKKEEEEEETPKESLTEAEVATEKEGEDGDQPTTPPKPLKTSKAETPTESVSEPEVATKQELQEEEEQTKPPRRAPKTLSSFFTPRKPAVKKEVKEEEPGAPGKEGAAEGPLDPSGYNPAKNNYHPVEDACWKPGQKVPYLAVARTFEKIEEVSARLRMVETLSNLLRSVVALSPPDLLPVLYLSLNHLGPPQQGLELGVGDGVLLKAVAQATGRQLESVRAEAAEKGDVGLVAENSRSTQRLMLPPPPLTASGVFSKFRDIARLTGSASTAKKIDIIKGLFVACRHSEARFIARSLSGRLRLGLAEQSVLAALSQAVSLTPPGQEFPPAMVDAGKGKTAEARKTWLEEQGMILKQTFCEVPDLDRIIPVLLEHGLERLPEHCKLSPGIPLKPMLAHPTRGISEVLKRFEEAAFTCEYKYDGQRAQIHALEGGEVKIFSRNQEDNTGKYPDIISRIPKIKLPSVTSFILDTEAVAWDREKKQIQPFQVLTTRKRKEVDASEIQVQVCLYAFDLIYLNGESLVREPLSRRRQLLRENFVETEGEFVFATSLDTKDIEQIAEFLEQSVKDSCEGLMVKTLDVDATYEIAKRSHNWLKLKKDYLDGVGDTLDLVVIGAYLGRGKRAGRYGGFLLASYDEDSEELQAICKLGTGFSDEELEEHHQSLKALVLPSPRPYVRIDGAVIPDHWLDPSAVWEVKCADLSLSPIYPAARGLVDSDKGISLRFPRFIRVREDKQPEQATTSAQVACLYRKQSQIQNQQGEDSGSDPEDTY

DLD-1 = test: Cytotoxicity against human DLD1 cells assessed as cell death at 10 uM after 48 hrs by MTT assay relative to control; type: functional
HepG2 [2] = test: Cytotoxicity against human HepG2 cells assessed as cell death at 10 uM after 48 hrs by MTT assay relative to control; type: functional
HEK293 = test: Cytotoxicity against HEK293 cells assessed as cell death at 10 uM after 48 hrs by MTT assay relative to control; type: cell-based; conditions: human, hek293, 48 h
HCT-116 = test: Cytotoxicity against human HCT116 cells assessed as cell death at 10 uM after 48 hrs by MTT assay relative to control; type: functional
DNA ligase 1 [3] = molecular target: T1, DNA ligase 1; test: Residual activity of human DNA ligase 1 expressed in Escherichia coli BL21(DE3)RP cells assessed as DNA ligation at 100 uM using fluorescently labelled ds nicked DNA as substrate after 30 mins by urea gel based imaging method relative to control
MDA-MB-231 = test: Cytotoxicity against human MDA-MB-231 cells assessed as cell death at 10 uM after 48 hrs by MTT assay relative to control; type: functional
A549 = test: Cytotoxicity against human A549 cells assessed as cell death at 10 uM after 48 hrs by MTT assay relative to control; type: functional
HepG2 [4] = test: Induction of cell death in human HepG2 cells at 0.625 uM after 48 hrs by MTT assay; type: functional, cell-based
[5] = Retention time of the compound by LC-MS/MS analysis; type: physicochemical

In the case of `CCOC(=O)C1=C(C)NC(=O)NC1c1cc(/C=N/NC(=S)Nc2ccccc2)c(O)c(C(C)(C)C)c1` (stereo unspecified), the inhibition (DNA ligase 1 [1]) is reported as 88.1%, the Activity (DLD-1) is reported as 30% and the Activity (HepG2 [2]) is reported as 43%. The Activity (HEK293) was 48.3%, the Activity (HCT-116) was 43.2% and the ligation (DNA ligase 1 [3]) was 12%. For the same compound, the Activity (MDA-MB-231) was 50.4% and the Activity (A549) was 48.7%.
`CCOC(=O)C1=C(C)NC(=O)NC1c1cc(C)c(O)c(/C=N/NC(=S)NC)c1` (stereo unspecified) gave an inhibition (DNA ligase 1 [1]) of 80.4%, an Activity (DLD-1) of 18.1% and an Activity (HepG2 [2]) of 33.1%. The Activity (HEK293) was 22.7%, the Activity (HCT-116) was 17.7% and the ligation (DNA ligase 1 [3]) was 19.6%. It also gave an Activity (MDA-MB-231) of 31% and an Activity (A549) of 14%.
In the case of `CCOC(=O)C1=C(C)NC(=O)NC1c1cc(/C=N/NC(N)=S)c(O)c(C(C)(C)C)c1` (stereo unspecified), the inhibition (DNA ligase 1 [1]) is reported as 80.4%, the Activity (DLD-1) is reported as 5.5% and the Activity (HepG2 [2]) is reported as 11.1%. It also gave an Activity (HEK293) of 17%, an Activity (HCT-116) of 7.8% and a ligation (DNA ligase 1 [3]) of 19.6%. The Activity (MDA-MB-231) was 21.1% and the Activity (A549) was 17%.
Compound `CCOC(=O)C1=C(C)NC(=S)NC1c1cc(/C=N/NC(=S)Nc2ccc(Cl)cc2)c(O)c(C(C)(C)C)c1` (stereo unspecified) has an inhibition (DNA ligase 1 [1]) of 79.4%, an Activity (DLD-1) of 15.5% and an Activity (HepG2 [2]) of 28.9%. For the same compound, the Activity (HEK293) was 52.7%, the Activity (HCT-116) was 57.8% and the ligation (DNA ligase 1 [3]) was 20.6%. For the same compound, the Activity (MDA-MB-231) was 17.3% and the Activity (A549) was 24.5%.
Work on `CCOC(=O)C1=C(C)NC(=O)NC1c1cc(C)c(O)c(C=O)c1` (stereo unspecified) yielded an inhibition (DNA ligase 1 [1]) of 76.9%, an Activity (DLD-1) of 14.7% and an Activity (HepG2 [2]) of 18.3%. For the same compound, the Activity (HEK293) was 9.2%, the Activity (HCT-116) was 5.7% and the ligation (DNA ligase 1 [3]) was 23.1%. It also gave an Activity (MDA-MB-231) of 32.5% and an Activity (A549) of 34.7%.
With `COc1cccc2c1C(=O)c1c(O)c3c(c(O)c1C2=O)C[C@@](O)(C(=O)CO)C[C@@H]3O[C@H]1C[C@H](N)[C@H](O)[C@H](C)O1` the Activity (HepG2 [4]) was “Active”.
For `CCOC(=O)C1=C(C)NC(=O)NC1c1cc(C=O)c(O)c(C(C)(C)C)c1` (stereo unspecified), the inhibition (DNA ligase 1 [1]) was 73.6%, the Activity (DLD-1) was 8.1% and the Activity (HepG2 [2]) was 11.4%. It also gave an Activity (HEK293) of 10.7%, an Activity (HCT-116) of 1.8% and a ligation (DNA ligase 1 [3]) of 26.4%. For the same compound, the Activity (MDA-MB-231) was 20.7% and the Activity (A549) was 25.4%.
`OC(Cn1cncn1)(Cn1cncn1)c1ccc(F)cc1F` [FLUCONAZOLE] gave a Retention_time [5] of 2.08 min.
Compound `CCOC(=O)C1=C(C)NC(=O)NC1c1cc(/C=N/NC(=S)NC)c(O)c(C(C)(C)C)c1` (stereo unspecified) has an inhibition (DNA ligase 1 [1]) of 80.8%, an Activity (DLD-1) of 34.1% and an Activity (HepG2 [2]) of 23.7%. The Activity (HEK293) was 24.6%, the Activity (HCT-116) was 22.5% and the ligation (DNA ligase 1 [3]) was 19.2%. It also gave an Activity (MDA-MB-231) of 29.7% and an Activity (A549) of 27.3%.
`CCOC(=O)C1=C(C)NC(=O)NC1c1cc(/C=N/NC(=O)Nc2ccc(Br)cc2)c(O)c(C(C)(C)C)c1` (stereo unspecified) gave an inhibition (DNA ligase 1 [1]) of 84%, an Activity (DLD-1) of 60.2% and an Activity (HepG2 [2]) of 65.3%. It also gave an Activity (HEK293) of 35.3%, an Activity (HCT-116) of 57.2% and a ligation (DNA ligase 1 [3]) of 16%. It also gave an Activity (MDA-MB-231) of 44.8% and an Activity (A549) of 45.3%.
In the case of `CCOC(=O)C1=C(C)NC(=O)NC1c1cc(/C=N/NC(=O)Nc2ccc(F)cc2)c(O)c(C(C)(C)C)c1` (stereo unspecified), the inhibition (DNA ligase 1 [1]) is reported as 84.7%, the Activity (DLD-1) is reported as 19.1% and the Activity (HepG2 [2]) is reported as 37.1%. The Activity (HEK293) was 46.8%, the Activity (HCT-116) was 17.5% and the ligation (DNA ligase 1 [3]) was 15.3%. It also gave an Activity (MDA-MB-231) of 43.7% and an Activity (A549) of 39.3%.
Compound `CCOC(=O)C1=C(C)NC(=S)NC1c1cc(/C=N/NC(=S)Nc2ccc(C)cc2)c(O)c(C(C)(C)C)c1` (stereo unspecified) has an inhibition (DNA ligase 1 [1]) of 68.9%, an Activity (DLD-1) of 45.7% and an Activity (HepG2 [2]) of 23.5%. The Activity (HEK293) was 40.2%, the Activity (HCT-116) was 50.5% and the ligation (DNA ligase 1 [3]) was 31.1%. The Activity (MDA-MB-231) was 3.3% and the Activity (A549) was 9.3%.
Work on `CCOC(=O)C1=C(C)NC(=S)NC1c1cc(C)c(O)c(/C=N/NC(=O)Nc2ccc(Cl)cc2)c1` (stereo unspecified) yielded an inhibition (DNA ligase 1 [1]) of 86.7%, an Activity (DLD-1) of 1% and an Activity (HepG2 [2]) of 22.8%. The Activity (HEK293) was 42.6%, the Activity (HCT-116) was 50.8% and the ligation (DNA ligase 1 [3]) was 13.4%. It also gave an Activity (MDA-MB-231) of 20.2% and an Activity (A549) of 12.8%.
For `CCOC(=O)C1=C(C)NC(=O)NC1c1cc(/C=N/NC(=S)Nc2ccc(Cl)cc2)c(O)c(C(C)(C)C)c1` (stereo unspecified), the inhibition (DNA ligase 1 [1]) was 80.9%, the Activity (DLD-1) was 43% and the Activity (HepG2 [2]) was 78.9%. The Activity (HEK293) was 53.1%, the Activity (HCT-116) was 82.5% and the ligation (DNA ligase 1 [3]) was 19.1%. It also gave an Activity (MDA-MB-231) of 83.6% and an Activity (A549) of 53.3%.
With `CCOC(=O)C1=C(C)NC(=O)NC1c1cc(C)c(O)c(/C=N/NC(N)=O)c1` (stereo unspecified) the inhibition (DNA ligase 1 [1]) was 64.3%, the Activity (DLD-1) was -3% and the Activity (HepG2 [2]) was 9.7%. The Activity (HEK293) was 15.7%, the Activity (HCT-116) was 4.3% and the ligation (DNA ligase 1 [3]) was 35.7%. For the same compound, the Activity (MDA-MB-231) was 13.9% and the Activity (A549) was 7%.
In the case of `CCOC(=O)C1=C(C)NC(=S)NC1c1cc(/C=N/NC(=S)Nc2ccccc2)c(O)c(C(C)(C)C)c1` (stereo unspecified), the inhibition (DNA ligase 1 [1]) is reported as 66.8%, the Activity (DLD-1) is reported as 67.6% and the Activity (HepG2 [2]) is reported as 26.5%. The Activity (HEK293) was 54.1%, the Activity (HCT-116) was 49.9% and the ligation (DNA ligase 1 [3]) was 33.2%. For the same compound, the Activity (MDA-MB-231) was 26.1% and the Activity (A549) was 29.6%.
Work on `CCOC(=O)C1=C(C)NC(=O)NC1c1cc(/C=N/NC(N)=O)c(O)c(C(C)(C)C)c1` (stereo unspecified) yielded an inhibition (DNA ligase 1 [1]) of 77.6%, an Activity (DLD-1) of 19.9% and an Activity (HepG2 [2]) of 0.7%. The Activity (HEK293) was 14%, the Activity (HCT-116) was 2.6% and the ligation (DNA ligase 1 [3]) was 22.4%. For the same compound, the Activity (MDA-MB-231) was 18.4% and the Activity (A549) was 9.1%.
With `CCOC(=O)C1=C(C)NC(=S)NC1c1cc(/C=N/NC(=O)Nc2ccccc2)c(O)c(C(C)(C)C)c1` (stereo unspecified) the inhibition (DNA ligase 1 [1]) was 80.9%, the Activity (DLD-1) was 17.6% and the Activity (HepG2 [2]) was 26%. The Activity (HEK293) was 53.3%, the Activity (HCT-116) was 17.9% and the ligation (DNA ligase 1 [3]) was 19.1%. It also gave an Activity (MDA-MB-231) of 7% and an Activity (A549) of 26.8%.
Work on `CCOC(=O)C1=C(C)NC(=S)NC1c1cc(/C=N/NC(=O)Nc2ccc(Cl)cc2)c(O)c(C(C)(C)C)c1` (stereo unspecified) yielded an inhibition (DNA ligase 1 [1]) of 77.1%, an Activity (DLD-1) of 17.1% and an Activity (HepG2 [2]) of 81.3%. For the same compound, the Activity (HEK293) was 65.7%, the Activity (HCT-116) was 63.3% and the ligation (DNA ligase 1 [3]) was 22.9%. It also gave an Activity (MDA-MB-231) of 13.8% and an Activity (A549) of 54%.
For `CCOC(=O)C1=C(C)NC(=O)NC1c1cc(C)c(O)c(/C=N/NC(N)=S)c1` (stereo unspecified), the inhibition (DNA ligase 1 [1]) was 84.1%, the Activity (DLD-1) was 6.2% and the Activity (HepG2 [2]) was 23.3%. It also gave an Activity (HEK293) of 6.7%, an Activity (HCT-116) of 1.3% and a ligation (DNA ligase 1 [3]) of 15.9%. It also gave an Activity (MDA-MB-231) of 10.7% and an Activity (A549) of 4.7%.
